Experimental findings from patent US20210330611A1, “THERAPY FOR NEUROLOGICAL DISEASES/DISORDERS” (priority 2020, published 2021) are described below.

Read-outs that look alike come from different tables or passages of the source.

A short description of one series: in vitro. Particulars: rat, Cell Toxicity IC50 (uM) [cFib assay], cFib assay.
Another series has as its system GGT. In words: GGT activity in substantia nigra after stereotactic LPS injection. The format is in vivo, mouse. The settings on record: 5 mg/kg i.p., 12 h after LPS, FIG. 15a. How it is done: Stereotactic LPS injection and drug treatment. Mice were anaesthetized with isoflurane and placed in a stereotactic apparatus (David Kopf Instruments). LPS (Sigma-Aldrich) was dissolved in endotoxin-free distilled water (HyClone) and was diluted to 1 μg/ml with PBS. LPS (2 μl of 1 μg/ml) or PBS was slowly injected (0.3 μl/min) using a 10-μl Hamilton syringe attached to a 33-G needle into the substantia nigra at coordinates (anteroposterior, 3.0 mm; mediolateral, 1.3 mm; dorsoventral, 4.7 mm from the bregma, according to Paxinos and Watson) Animals received acivicin (5 mg/kg) or saline intraperitoneally beginning 5 days before LPS injection and for 7 days after LPS injection. After 12 h of the LPS injection, the substantia nigra area was immediately collected on ice and kept at −80° C. for later analysis of GGT activity. After 7 d of the LPS injection, mice were perfused with 4% PFA, and the brains were post-fixed in 4% PFA overnight at 4° C. […] Images were acquired with all-in-one BZ-X700 fluorescence microscope. Images were quantified using NIH ImageJ (version 1.50) by blinded observers.

The subject of series [1] is fibrin- and LPS-induced microglia activation. In words: cells. The format is cell-based, rat. Particulars: for inhibition at 10 µM: Rattus norvegicus.
The subject of a further series is adoptive transfer EAE. Kind of series: Adoptive transfer EAE induced by PLP139-151-specific T cells, clinical scores. The format is in vivo, mouse. The settings on record: prophylactic, 5 mg/kg daily from day 0, FIG. 7d.
The test system of another series is intracellular GSH. The series is classed as cell-based, mouse. On the procedure:
Real-time imaging of glutathione. The real-time GSH dynamics in living BMDMs was determined with the fluorescent GSH probe, RealThiol RT-AM as described (37). Cells were plated on 2-well chamber slide (Nunc) pre-coated with 25 μg/ml fibrin. Cells were stimulated with fibrin with or without 5 μM acivicin or GGsTop. The GSH synthesis inhibitor, buthionine sulfoximine (BSO, Sigma-Aldrich) was used as positive control for reducing intracellular GSH levels at 100 μM. After 24 h incubation, cells were loaded with 1 μM RT-AM probe and were incubated for 5 min before imaging. The cells were kept at 37° C. during the entire experiment. […] For each independent experiment, laser power and detector settings were set using the control/untreated cells incubated with RT-AM alone as reference. All settings were kept constant throughout the experiment. […] The ratio calculated for each treatment was expressed as percentage from that of the untreated cells (control).

For another series, the system named is CD4+ T cells. In words: Flow cytometry of splenocyte T cells from MOG35-55 EAE mice. The series is classed as in vivo, mouse. Particulars: splenocytes, 10 days treatment, FIG. 14C-F. How it is done:
Flow cytometry. Cells were incubated with anti-mouse CD16/CD32 antibody (2.4G2) diluted in PBS with 2% FBS, and 2 mM EDTA at 4° C. for 15 min to block Fc receptor binding. Cells were stained with fluorescent-conjugated antibodies: CD3 (17A2), CD4 (GK1.5), CD8 (53-6.7), CD62L (MEL-14), CD44 (1M7), CD25 (3C7), CD11b (M1/70), CD45 (30-F11), and MHC II (M5/114.15.2). For surface labeling of GGT1, unconjugated mouse monoclonal anti-GGT1 (1:100; ab55138, Abcam) was incubated with surface markers for 1 hr at 4° C. Then FITC conjugated species-specific secondary antibody (1:100) was added for 1 hr at 4° C. For intracellular staining of IFN-γ and IL-17A, T cells were stimulated for 4 hr with Cell Activation Cocktail (BioLegend). Cells were then fixed with Cytofix/Cytoperm solution (BD Bioscience) and stained with antibodies to IL-17A (TC11-18H10.1), or IFN-γ (XMG1.2). Foxp3 (FJK-16S) staining was performed according to the manufacturer's protocol (eBioscience). Cells were analyzed by flow cytometry on an LSR II (BD Biosciences) with FlowJo software (Tree Star Inc.). Antibodies were purchased from BioLegend, BD Biosciences, or eBioscience.

In a further series the test system is MOG35-55 EAE. Kind of series: Immunohistochemistry of spinal cord lesions in MOG35-55 EAE mice. The format is in vivo, mouse.

Consider `N[C@H](C(=O)O)[C@@H]1CC(Cl)=NO1` [Acivicin, (2S)-2-amino-2-[(5S)-3-chloro-4,5-dihydro-1,2-oxazol-5-yl] acetic acid], for which the IC50 in “in vitro” is over 20 µM. For the same compound, the “GGT activity in SN after LPS injection” value with GGT is on record as “blocked”. Besides, the “Quadrant (FIG. 5b)” value in series [1] (HTS of 1907 compounds, quadrant by fibrin and LPS inhibition) is reported as “Q2”; in series [1] (Table 1, screen at 10 μM) it was “Q2”; in series [1] (Table 2, screen at 10 μM) it was “Q2”; in series [1] (quadrant by fibrin and LPS inhibition in HTS of 1907 compounds) it was “Q2”. Further, the inhibition at 10 µM in series [1] (Microglia, HTS hit classification, read-out: Hit) was over 50%; in series [1] (hit classification in microglia HTS, read-out: Cherry-picked Hit (Suppl. Table 7)) it was over 50%. In series [1] (Table 7, fib = fibrin, LPS, tox = toxicity), the Activity result is reported as “fib/LPS”. Moreover, the “disease onset and severity” value with adoptive transfer EAE was “delayed”. In addition, the “fibrin-induced degradation of glutathione (RealThiol F405/F488)” value in the series on intracellular GSH was “inhibited”. Besides, the “IFN-γ-producing T cells” value with CD4+ T cells is listed as “selectively decreased”. Further, the “IL-17-producing T cells” value with CD4+ T cells is given as “selectively decreased”. In addition, in the series with MOG35-55 EAE (FIG. 7i), the “demyelination (MBP)” value is “markedly reduced”. In addition, the “neuronal damage (SMI-32)” value in the series with MOG35-55 EAE (FIG. 7i) is reported as “markedly reduced”. Further, the “microglia activation (CX3CR1+ cells)” value with MOG35-55 EAE (FIG. 7j) was “markedly reduced”. Further, in the series on MOG35-55 EAE (FIG. 7j), the “monocyte/macrophage infiltration (CCR2+ cells)” value is “markedly reduced”. The “4-hydroxynonenal (4-HNE) immunostaining” value with MOG35-55 EAE (spinal cord, peak disease, FIG. 7f) is reported as “markedly reduced”.
